Values of other authors as cited in patent US7119205B2, “Thienopyridones as AMPK activators for the treatment of diabetes and obesity” (Abbott Laboratories, priority 2003, dated 2006).

Test system: ob/ob and db/db mice
Conditions: 8 day administration

## NC(=O)c1ncn([C@@H]2O[C@H](CO)[C@@H](O)[C@H]2O)c1N [AICAR]
  reduction of blood glucose: 35%
